Among the data in patent US20190119282A1, “IMIDAZOPYRIDAZINES USEFUL AS INHIBITORS OF THE PAR-2 SIGNALING PATHWAY” (Vertex Pharmaceuticals Incorporated, priority 2013, published 2019) are IC50 values, retold here.

For experiment [1], the system named is UTP-stimulated Ca2+ response in HT-29 cells. Description: Ca FLIPR TETRA assay, ANTAGONIST mode, stimulation with 0.6 μM UTP. Format: cell-based, human. To be noted: Homo sapiens; HT-29 cells, stimulation with 0.6 μM UTP. The method in brief: (§1)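 Cells plated overnight at 37 °C, 5% CO2 in 1% FBS medium; dye loading 45 min at 37 °C then 15 min r.t.; compound added from DMSO/HBSS dilution; first read for intrinsic Ca2+ activation; 30 min r.t. incubation; antagonist read after addition of the fixed activator (8 μM SLIGKV, 1 U/mL thrombin, 3.1 U/mL trypsin or 0.6 μM UTP).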

Experiment [2] has as its target T1, PAR2 (HT-29 cells, trypsin activation) (Homo sapiens, UniProt P55085).
T1 construct: host or cells: HT-29 cells
T1 sequence (P55085 26-397): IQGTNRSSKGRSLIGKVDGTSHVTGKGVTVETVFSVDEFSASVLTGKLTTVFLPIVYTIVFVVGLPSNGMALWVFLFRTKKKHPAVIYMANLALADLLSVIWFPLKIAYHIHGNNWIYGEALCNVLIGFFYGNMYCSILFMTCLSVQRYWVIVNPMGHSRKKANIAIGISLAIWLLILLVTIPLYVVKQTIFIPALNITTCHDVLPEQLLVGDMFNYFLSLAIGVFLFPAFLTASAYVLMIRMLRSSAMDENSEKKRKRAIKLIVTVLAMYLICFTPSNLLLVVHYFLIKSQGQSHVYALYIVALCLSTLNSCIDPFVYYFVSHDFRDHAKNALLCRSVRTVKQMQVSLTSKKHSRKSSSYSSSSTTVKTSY
Briefly: Ca FLIPR TETRA assay, ANTAGONIST mode, stimulation with 3.1 U/mL trypsin. Type of experiment: cell-based. The note with it: HT-29 cells, stimulation with 3.1 U/mL trypsin. The procedure, abridged:
as §1

The test system of experiment [3] is Thrombin-stimulated Ca2+ response in HT-29 cells. Briefly: Ca FLIPR TETRA assay, ANTAGONIST mode, stimulation with 1 U/mL Thrombin. The note with it: Homo sapiens; HT-29 cells, stimulation with 1 U/mL Thrombin. Format: cell-based, human. The procedure, abridged: as §1
The target in experiment [4] is T2, PAR2 (HT-29 cells, SLIGKV activation) (Homo sapiens, UniProt P55085).
T2 construct: host or cells: HT-29 cells
T2 sequence (P55085 26-397): T1 sequence (P55085 26-397)
Description: Ca FLIPR TETRA assay, ANTAGONIST mode, stimulation with 8 μM SLIGKV. Type of experiment: cell-based. The note with it: HT-29 cells, stimulation with 8 μM SLIGKV. The procedure, abridged: as §1

Molecules are shown by their SMILES.

One may read the IC50 as the concentration that inhibits the measured activity by half. For `CC(C)c1cc(-c2ccc(F)cc2)nn2cc(C(=O)N3CCN(C(=O)CC4CC4)[C@@H](C)C3)nc12` [Compound I-140], the IC50 in experiment [1] stood at 14 µM; in experiment [2], 0.25 µM; in experiment [3], 15 µM; in experiment [4], 0.014 µM.

In the case of `CC(C)c1cc(-c2ccc(F)cc2)nn2cc(C(=O)N3CCN(C(=O)CC4CCOCC4)[C@@H](C)C3)nc12` [Compound I-141], the IC50 turned out to be 24 µM in experiment [1], 0.13 µM in experiment [2], 19 µM in experiment [3] and 0.016 µM in experiment [4].

On to `CC(C)c1cc(-c2ccc(F)cc2)nn2cc(C(=O)N3CCN(C(=O)Cc4cccnc4)[C@@H](C)C3)nc12` [Compound I-142], for which the half-inhibitory concentration (IC50) was 24 µM in experiment [1], 0.28 µM in experiment [2], 26 µM in experiment [3] and 0.035 µM in experiment [4].

With `CCOCCC(=O)N1CCN(C(=O)c2cn3nc(-c4ccc(F)cc4)cc(C(C)C)c3n2)C[C@@H]1C` [Compound I-143], the IC50 in experiment [1] amounted to 21 µM; in experiment [2], 0.29 µM; in experiment [3] it was 22 µM; in experiment [4] it was 0.041 µM.

For the compound `CC(C)c1cc(-c2ccc(F)cc2)nn2cc(C(=O)N3CCN(C(=O)CCC4CCC4)[C@@H](C)C3)nc12` [Compound I-144], the IC50 in experiment [1] amounted to 5.2 µM; in experiment [2], 0.005 µM; in experiment [3] it was 6.6 µM; in experiment [4] it was 0.002 µM.

Consider `CC(C)c1cc(-c2ccc(F)cc2)nn2cc(C(=O)N3CCN(C(=O)CC4CCOC4)[C@@H](C)C3)nc12` (stereo partly shown) [Compound I-145], for which the IC50 was determined as 23 µM in experiment [1], 0.33 µM in experiment [2], 24 µM in experiment [3] and 0.072 µM in experiment [4].

Turning to `CCC(C)(O)CC(=O)N1CCN(C(=O)c2cn3nc(-c4ccc(F)cc4)cc(C(C)C)c3n2)C[C@@H]1C` (stereo partly shown) [Compound I-146], the IC50 worked out at 19 µM in experiment [1], 1 µM in experiment [2], 20 µM in experiment [3] and 0.016 µM in experiment [4].

On to `CCCCC(=O)N1CCN(C(=O)c2cn3nc(-c4ccc(F)cc4)cc(C(C)C)c3n2)C[C@@H]1C` [Compound I-147], for which the IC50 in experiment [1] was determined as 6.6 µM; in experiment [2], 0.061 µM; in experiment [3] it was 8 µM; in experiment [4], 0.006 µM.

Consider `CC(C)c1cc(-c2ccc(F)cc2)nn2cc(C(=O)N3CCN(C(=O)C4(NC(=O)OC(C)(C)C)CC4)[C@@H](C)C3)nc12` [Compound I-148], for which the IC50 in experiment [1] is 39 µM; in experiment [2], 0.096 µM; in experiment [3] it was greater than 50 µM; in experiment [4] it was 0.052 µM.

As for `CC(C)c1cc(-c2ccc(F)cc2)nn2cc(C(=O)N3CCN(C(=O)C4(NC(=O)OC(C)(C)C)CCC4)[C@@H](C)C3)nc12` [Compound I-149], the IC50 in experiment [1] is greater than 50 µM; in experiment [2], 0.057 µM; in experiment [3], greater than 50 µM; in experiment [4], 0.03 µM.

With `CC(C)c1cc(-c2ccc(F)cc2)nn2cc(C(=O)N3CCN(C(=O)C4(NC(=O)OC(C)(C)C)CCCCC4)[C@@H](C)C3)nc12` [Compound I-150], the IC50 was 84 µM in experiment [1], 0.23 µM in experiment [2], greater than 50 µM in experiment [3] and 0.074 µM in experiment [4].

As to `CC(C)c1cc(-c2ccc(F)cc2)nn2cc(C(=O)N3CCN(C(=O)C(C)(C)NC(=O)OCc4ccccc4)[C@@H](C)C3)nc12` [Compound I-151], the IC50 in experiment [1] is greater than 50 µM; in experiment [2] it was 0.16 µM; in experiment [3], greater than 50 µM; in experiment [4] it was 0.063 µM.

On to `CC(C)c1cc(-c2ccc(F)cc2)nn2cc(C(=O)N3CCN(C(=O)[C@H](O)C(C)(C)C)[C@@H](C)C3)nc12` [Compound I-152], for which the IC50 in experiment [1] is 10 µM; in experiment [2] it was 0.054 µM; in experiment [3], 13 µM; in experiment [4], 0.004 µM.

Take `Cc1cc(-c2ccc(F)cc2)nn2cc(C(=O)N3CCN(C(=O)[C@H](O)C(C)(C)C)[C@@H](C)C3)nc12` [Compound I-153]: the half-inhibitory concentration (IC50) in experiment [1] was 22 µM; in experiment [2], 1.45 µM; in experiment [3] it was 19 µM; in experiment [4], 0.25 µM.

Regarding `CC(C)c1cc(-c2ccc(F)cc2)nn2cc(C(=O)N3CCN(C(=O)C4(N)CC4)[C@@H](C)C3)nc12` [Compound I-154], the IC50 in experiment [1] was greater than 50 µM; in experiment [2], 6.4 µM; in experiment [3], greater than 50 µM; in experiment [4] it was 1.4 µM.

As to `CC(C)c1cc(-c2ccc(F)cc2)nn2cc(C(=O)N3CCN(C(=O)C4(N)CCC4)[C@@H](C)C3)nc12` [Compound I-155], the IC50 in experiment [1] was 25 µM; in experiment [2], 3.5 µM; in experiment [3] it was 27 µM; in experiment [4] it was 0.8 µM.

`CC(C)c1cc(-c2ccc(F)cc2)nn2cc(C(=O)N3CCN(C(=O)C4(N)CCCCC4)[C@@H](C)C3)nc12` [Compound I-156]: the IC50 in experiment [1] stood at 17 µM; in experiment [2], 6.8 µM; in experiment [3], 21 µM; in experiment [4], 1.4 µM.

In the case of `CC(C)c1cc(-c2ccc(F)cc2)nn2cc(C(=O)N3CCN(C(=O)C(C)(C)N)[C@@H](C)C3)nc12` [Compound I-157], the IC50 in experiment [1] is 38 µM; in experiment [2] it was 14 µM; in experiment [3], 40 µM; in experiment [4], 5.7 µM.

With `Cc1cc(-c2ccc(F)cc2)nn2cc(C(=O)N3CCN(C(=O)C(C)(C)O)[C@@H](C)C3)nc12` [Compound I-158], the IC50 in experiment [1] is 67 µM; in experiment [2], 26 µM; in experiment [3], 77 µM; in experiment [4] it was 9.1 µM.

Turning to `Cc1cc(-c2ccc(F)cc2)nn2cc(C(=O)N3CCN(C(=O)C4(O)CCC4)[C@@H](C)C3)nc12` [Compound I-159], the half-maximal inhibitory concentration (IC50) in experiment [1] amounted to 36 µM; in experiment [2] it was 17 µM; in experiment [3], 42 µM; in experiment [4], 7.3 µM.

Turning to `C=CC(=O)N1CCN(C(=O)c2cn3nc(-c4ccc(F)cc4)cc(C(C)C)c3n2)C(C)(C)C1` [Compound I-160], the IC50 is 14 µM in experiment [1], 0.041 µM in experiment [2], 7.9 µM in experiment [3] and 0.01 µM in experiment [4].

As for `CCc1cc(-c2ccc(F)cc2)nn2cc(C(=O)N3CCN(C(=O)C(C)(C)O)CC3(C)C)nc12` [Compound I-161], the IC50 in experiment [1] worked out at 72 µM; in experiment [2] it was 0.33 µM; in experiment [3], 140 µM; in experiment [4], 0.2 µM.

With `CCc1cc(-c2ccc(F)cc2)nn2cc(C(=O)N3CCN(C(=O)C4(O)CCC4)CC3(C)C)nc12` [Compound I-162], the IC50 stood at 35 µM in experiment [1], 0.16 µM in experiment [2], 35 µM in experiment [3] and 0.11 µM in experiment [4].

As to `CCc1cc(-c2ccc(F)cc2)nn2cc(C(=O)N3CCN(C(=O)Cc4ccncc4)[C@@H](C)C3)nc12` [Compound I-163], the IC50 stood at 13 µM in experiment [1], 1.7 µM in experiment [2], 12 µM in experiment [3] and 0.64 µM in experiment [4].

Regarding `CCc1cc(-c2ccc(F)cc2)nn2cc(C(=O)N3CCN(C(=O)CC4CCOCC4)[C@@H](C)C3)nc12` [Compound I-164], the 50% inhibitory concentration (IC50) in experiment [1] was determined as 54 µM; in experiment [2], 2 µM; in experiment [3] it was 54 µM; in experiment [4], 0.2 µM.

On to `CCc1cc(-c2ccc(F)cc2)nn2cc(C(=O)N3CCN(C(=O)[C@H](O)CC(C)(C)C)CC3(C)C)nc12` [Compound I-165], for which the IC50 amounted to 8 µM in experiment [1], 0.002 µM in experiment [2], 7.4 µM in experiment [3] and 0.001 µM in experiment [4].

As for `CCc1cc(-c2ccc(F)cc2)nn2cc(C(=O)N3CCN(C(=O)[C@H](O)C(C)C)CC3(C)C)nc12` [Compound I-166], the IC50 came out at 27 µM in experiment [1], 0.053 µM in experiment [2], 23 µM in experiment [3] and 0.016 µM in experiment [4].

In the case of `CCc1cc(-c2ccc(F)cc2)nn2cc(C(=O)N3CCN(C(=O)[C@H](O)CC(C)C)CC3(C)C)nc12` [Compound I-167], the IC50 is 9.6 µM in experiment [1], 0.002 µM in experiment [2], 8.5 µM in experiment [3] and 0.002 µM in experiment [4].

As for `CCc1cc(-c2ccc(F)cc2)nn2cc(C(=O)N3CCN(C(=O)[C@H](O)C(C)C)[C@@H](C)C3)nc12` [Compound I-168], the IC50 in experiment [1] was found to be 13 µM; in experiment [2], 0.35 µM; in experiment [3], 16 µM; in experiment [4] it was 0.067 µM.

Regarding `CCc1cc(-c2ccc(F)cc2)nn2cc(C(=O)N3CCN(C(=O)[C@H](O)CC(C)C)[C@@H](C)C3)nc12` [Compound I-169], the half-inhibitory concentration (IC50) in experiment [1] came to 26 µM; in experiment [2], 0.017 µM; in experiment [3] it was 25 µM; in experiment [4], 0.01 µM.

Take `CCc1cc(-c2ccc(F)cc2)nn2cc(C(=O)N3CCN(C(=O)[C@H](O)CC4CC4)[C@@H](C)C3)nc12` [Compound I-170]: the IC50 in experiment [1] was determined as 30 µM; in experiment [2], 0.038 µM; in experiment [3] it was 33 µM; in experiment [4] it was 0.014 µM.
